Results reported in patent publication US20220228054A1, “FLUORESCENT NAPHTHALIMIDE POLYMERS AND SOLUTIONS THEREOF FOR SCALE CONTROL IN AQUEOUS SYSTEMS” (NOURYON CHEMICALS INTERNATIONAL B.V., priority 2019, published 2022).

Tests used:
Format in all cases: physicochemical
[1] = Solubility in acrylic acid; settings: 1.39 g in 10.5 g of acrylic acid
Procedure: The solubility of the monomer reaction product of Monomer Example 2 in acrylic acid was measured in the following manner. 10 g of acrylic acid was taken and the dried monomer reaction product of Monomer Example 2 was added in 0.2 g aliquots. The Monomer Example 2 reaction product started to become insoluble after 1.39 g was added. Next, 0.5 g of acrylic acid was added to form a clear solution. The final solution had 1.39 g of reaction product of Example 2 in 10.5 g of acrylic acid. The weight of reaction product of Example 2 was 11.7% of the total solution weight.

[2] = LC/FLD and GC/MS fluorescence of monomer species; settings: for excitation maximum: at the emission maximum; for emission maximum: zero order excitation
Procedure: The sample of this example was initially analyzed by LC/MS to identify the retention times of target peaks. The same sample was then analyzed using similar, but weaker LC conditions by LC/FLD. The first step was to collect emission spectra with zero order excitation, this allows determining the emission maximum, which was 410 nm for the N-allyl-4-propoxy-1,8-naphthalimide and 450 nm for the N-allyl-4,5-dipropoxy-1,8-naphthalimide species.
The next step was to collect excitation spectra at the emission maximum for each compound. This allows determining the individual excitation maximum, which was 375 nm and 395 nm for the N-allyl-4-propoxy-1,8-naphthalimide and the N-allyl-4,5-dipropoxy-1,8-naphthalimide species respectively. The final step is to collect a chromatogram at the individual excitation and emission maxima. The latter two steps are each done with time programming the wavelengths, so each only require a single chromatogram.
Then the sample was analyzed by GC/MS to estimate the actual concentrations of the two components of interest. The ratio of the area percent by fluorescence and mass spec is the estimated relative fluorescence intensity. […] This assumes that the GC/MS area percent is the actual weight percent, which should be a close approximation.

Solubility in water = assay: Solubility in water
Procedure: The procedure of Example 4 in RU2640339 was repeated. An initial charge of 84 g of deionized water and 1 g of ammonium persulfate was placed in a 250 ml glass reactor with inlet ports for an agitator, water cooled condenser, thermocouple. 15 g of acrylic acid (0.208 moles, 99.73 mole percent of polymer) was weighed into a beaker and then 0.15 g of N-allyl-4-methoxy-1,8-naphthalimide (Monomer Example 2, formula weight 267, 0.00056 moles, […] of polymer) was added to the beaker and mixed until the powdered fluorescent monomer dissolved. This solution was then added to the reactor, with stirring. The reaction mixture was very cloudy, indicating insolubility of the N-allyl-4-methoxy-1,8-naphthalimide in the reaction mixture. The reactor contents were slowly heated to 85° C. When the temperature reached about 80° C., a strong exotherm was observed. The reaction mixture started to thicken and within minutes, a sticky, intractable mass was formed and started to rise up the stir shaft. An attempt was made to remove some of the reaction product from the reactor and try and dissolve it in water.

In the case of `C=CCN1C(=O)c2cccc3c(OC)ccc(c23)C1=O` [Monomer Example 2, N-allyl-4-methoxy-1,8-naphthalimide], the “solubility in acrylic acid (weight of reaction product in clear solution)” value [1] is reported as 11.7 % of the total solution weight.

For `C=CCN1C(=O)c2cccc3c(OCCC)ccc(c23)C1=O` [Monomer Example 3, N-allyl-4-propoxy-1,8-naphthalimide], the excitation maximum [2] was 375 nm and the emission maximum [2] was 410 nm.

For `C=CCOc1ccc2c3c(cccc13)C(=O)N(CCC)C2=O` [Monomer Example 4, N-propyl-4-allyloxy-1,8-naphthalimide], the “solubility in water (in words)” value (Solubility in water) was “insolubility”.

In the case of `C=CCN1C(=O)c2cccc3c(OCCOCCOCCOC)ccc(c23)C1=O` [Monomer Example 5, N-allyl-4-(methoxy, triethylene glycol) 1,8-naphthalimide], the solubility in water (Solubility in water; 25° C., pH 7) is reported as “less than 0.1 grams per 100 mis of water”.

For `C=CCN1C(=O)c2ccc(OCCC)c3c(OCCC)ccc(c23)C1=O` [N-allyl-4,5-dipropoxy-1,8-naphthalimide], the excitation maximum [2] was 395 nm and the emission maximum [2] was 450 nm.
